Consider three molecules from patent US20230136941A1, “IMPROVING PLANT NUTRITIONAL VALUE AND GROWTH THROUGH ENHANCEMENT OF ESSENTIAL AMINO ACID LEVELS” (Board of Trustees of Michigan State University, priority 2020, published 2023).

For experiment [1], the system named is eva1 cotyledon epidermal cells expressing GFP-δTIP. Kind of experiment: Confocal imaging of vacuole morphology after temporal chemical treatment of eva1 seedlings. It counts as cell-based, Arabidopsis thaliana.
Experiment [2] relates to wild type (Col-0), eva1, ipms1-4 and ipms1-5 seedlings. Kind of experiment: Primary root elongation of seedlings germinated and grown on medium containing chemical inhibitors (chronic treatment). It counts as in vivo, Arabidopsis thaliana. The protocol:
Except for chronical treatments with specified chemicals, Arabidopsis seeds were stratified and grown on medium containing half-strength Linsmaier and Skoog nutrients (½ LS; Caisson Labs, LSP03), 1% sucrose and 0.4% phytagel (Sigma-Aldrich, P8169) in chambers configured with 21° C. and 16-hour light: 8-hour dark cycle.
In another pharmaceutical examination using AZD-8055, wortmannin and Lat B (FIG. 6A-6G, 6L-6Q), wild type (Col-0), eva1, ipms1-4 and ipms1-5 lines germinated and grew on vertically staged Petri dishes containing Arabidopsis growth medium containing specific chemical inhibitors.

Experiment [3] relates to wild type cotyledon epidermal cells expressing GFP-δTIP. The experiment in a line: Confocal imaging of vacuole morphology after temporal chemical treatment of wild type seedlings. The note with it: 5 μM AZD-8055, 2 or 4 hours.
The subject of experiment [4] is wild type (Col-0), ipms1-4 and ipms1-5 seedlings. Kind of experiment: Root growth after transplant of 10-day old seedlings to Lat B medium. Type of experiment: in vivo, Arabidopsis thaliana. Here is the method: To examine the effect of latrunculin B (Lat B) on root elongation (FIG. 6L-6Q), wild type (Col-0), ipms1-4 and ipms1-5 lines germinated and grew on horizontally staged Petri dishes containing Arabidopsis growth medium (½ LS, 1% sucrose and 0.4% phytagel). 10-day old seedlings were transplanted to Petri dishes containing ½ LS, 1% sucrose and 1% Agar (Acumedia, 7558A) medium containing DMSO or 50 nM Lat B or 100 nM Lat B. Photographs were acquired immediately after the transplant and the Petri dishes were vertically staged in a Percival chamber.
Photographs were also acquired 8 days after the transplant.
Experiments were designed to validate this hypothesis by testing the sensitivity of the ipms1 alleles to the F-actin depolymerizing reagent latrunculin B (Lat B) (Cao et al., 2016). The primary root length of 10-day old ipms1-4 and ipms1-5 was approximately 50% of WT (FIG. 4H-4I). Seedlings of all genotypes were then transferred to medium containing DMSO or 50 nM or 100 nM Lat B in DMSO.

Experiment [5] concerns omr1-11^D cotyledon epidermal cells. Kind of experiment: ER strand phenotype of omr1-11^D after Torin2 treatment. Type of experiment: cell-based, Arabidopsis thaliana. The conditions noted are these: 2-hour Torin2 treatment.
Setting [6] is: 25 μM Lat B, two-hour treatment.
[7] abbreviates: nine-day old seedlings grown on Lat B medium (FIG. 6P-6Q).

`COc1ccc(-c2ccc3c(N4CCOC[C@@H]4C)nc(N4CCOC[C@@H]4C)nc3n2)cc1CO` [AZD-8055]: the “small vacuoles and trans-vacuolar strands in eva1” value in experiment [1] (5 μM AZD-8055, 2 hours) is given as “reduced in appearance”. Besides, in experiment [1] (5 μM AZD-8055, 4 hours), the “vacuole appearance of eva1 cells” value is reported as “indistinguishable from wild type”. The “vacuolar mutant phenotypes of eva1 (FIG. 6A-6F legend)” value in experiment [1] (legend prints 5 mM AZD-8055, 2 and 4 hours) was “rescues vacuolar mutant phenotypes of eva1”. Further, the “ipms1 primary root elongation” value in experiment [2] (AZD-8055 higher concentrations (0.4, 0.6 and 1.0 μM), chronic) was “inhibited”; in experiment [2] (AZD-8055 lower concentrations (0.1 and 0.2 μM), chronic) it was “promoted”. Also, the “morphology of the central vacuole and trans-vacuolar strands in wild type cells” value in experiment [3] is recorded as “did not exhibit significant changes”.
With `C/C1=C/C(=O)O[C@@H]2C[C@@H](CC[C@H](C)/C=C\CC1)O[C@@](O)([C@@H]1CSC(=O)N1)C2` [Lat B, latrunculin B], in experiment [1] (setting [6]), the “small vacuoles in eva1” value is given as “persisted” and the “trans-vacuolar strands in eva1” value was “disappeared”. Also, the “promotion of root elongation” value in experiment [2] (Lat B treatment, chronic, increasing concentrations) is “not observed”. Moreover, in experiment [2] (setting [7]), the “primary root length vs DMSO control, ipms1 mutants” value is given as “less effects” and the “primary root length vs DMSO control, wild type” value is reported as “significant differences”. In addition, in experiment [4] (50 nM Lat B, 8 days after transplant (DMSO medium: approximately 65%)), the “primary root length of ipms1-4 and ipms1-5 compared to WT” value is 80%. Further, the “formation of lateral roots in WT seedlings” value in experiment [4] (50 nM or 100 nM Lat B, 8 days after transplant) is reported as “promoted the formation of lateral roots”. The “primary root length of ipms1-4 and ipms1-5 compared to WT” value in experiment [4] (100 nM Lat B, 8 days after transplant) is given as “not significantly different from WT”.
For `Nc1ccc(-c2ccc3ncc4ccc(=O)n(-c5cccc(C(F)(F)F)c5)c4c3c2)cn1` [Torin2, 9-(6-aminopyridin-3-yl)-1-(3-(trifluoromethyl)phenyl) benzo[h][1,6]naphthyridin-2(1H)-one], the “presumably unfused vacuoles and trans-vacuolar strands in eva1” value in experiment [1] (1 μM Torin2, 2 hours) is “no longer present”. In experiment [5], the “enhanced ER strands in omr1-11^D” value is listed as “recovered”.
